Earlier results, collected in patent publication US6986763B2, “Methods and compositions usable in cataract surgery” (PHACOTREAT AB, priority 2001, dated 2006).

Test system: lens epithelial cells
Conditions: in vitro

| Compound | inhibiting lens epithelial cells proliferation |
| --- | --- |
| O=c1[nH]cc(F)c(=O)[nH]1 [5-fluorouracil] | effective |
| COc1cc2c(c(OC)c1OC)-c1ccc(OC)c(=O)cc1[C@@H](NC(C)=O)CC2 [colchicines] | effective |
| COc1cccc2c1C(=O)c1c(O)c3c(c(O)c1C2=O)C[C@@](O)(C(C)=O)C[C@@H]3O[C@H]1C[C@H](N)[C@H](O)[C@H](C)O1 [daunomycin/daunorubicin] | effective |
| COc1cccc2c1C(=O)c1c(O)c3c(c(O)c1C2=O)C[C@@](O)(C(=O)CO)C[C@@H]3O[C@H]1C[C@H](N)[C@H](O)[C@H](C)O1 [doxorubicin] | effective |
| CN(Cc1cnc2nc(N)nc(N)c2n1)c1ccc(C(=O)N[C@@H](CCC(=O)O)C(=O)O)cc1 [methotrexate] | effective |
| CO[C@@]12[C@H](COC(N)=O)C3=C(C(=O)C(C)=C(N)C3=O)N1C[C@@H]1N[C@@H]12 [mitomycin] | effective |
| CC(=O)O[C@H]1C(=O)[C@@]2(C)[C@H]([C@H](OC(=O)c3ccccc3)[C@]3(O)C[C@H](OC(=O)[C@H](O)[C@@H](NC(=O)c4ccccc4)c4ccccc4)C(C)=C1C3(C)C)[C@]1(OC(C)=O)CO[C@@H]1C[C@@H]2O [taxol] | effective |

Test system: lens epithelial cells
Conditions: cadaver eyes; 2% solution in irrigation solution

| Compound | damage to the zonules |
| --- | --- |
| trypsin | the zonules were damaged |

Same assay, conditions: cadaver eyes; agent in irrigation solution

| Compound | separation of lens epithelial cells |
| --- | --- |
| O=C(O)CN(CCN(CC(=O)O)CC(=O)O)CC(=O)O [EDTA, Ethylenediamine tetraacetic acid] | the anterior lens epithelial cells could be separated |
| trypsin | lens epithelial cells were stripped in places |
